# Like-named read-outs stand apart in the source and are kept apart here.
# What was measured:
# [1] = target: T1, OTUB2 (OTUB2A) (Homo sapiens, UniProt Q96DC9); design: Intact protein LC/MS covalent labelling, fragments in pools of five, 200 uM each, 4 °C; conditions: 24 h, 4 °C, pool of five; 200 µM; covalent
# T1 construct: full length residues 1-234, E. coli BL21(DE3)-R3, His tag removed by TEV, construct 27312 Da
# T1 sequence (Q96DC9 1-234): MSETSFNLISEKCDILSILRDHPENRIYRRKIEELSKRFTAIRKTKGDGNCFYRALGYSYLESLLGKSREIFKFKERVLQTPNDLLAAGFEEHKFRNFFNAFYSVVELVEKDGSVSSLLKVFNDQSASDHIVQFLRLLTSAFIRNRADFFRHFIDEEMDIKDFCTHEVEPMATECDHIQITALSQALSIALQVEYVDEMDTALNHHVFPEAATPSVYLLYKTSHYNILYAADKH
# [2] = target: T2, BSA (Bos taurus, UniProt P02769); design: Intact protein LC/MS covalent labelling, fragments in pools of five, 200 uM each, 4 °C; conditions: 24 h, 4 °C, pool of five; 200 µM; covalent
# T2 construct: gene ALB
# T2 sequence (P02769 whole entry, the tested form may be a part): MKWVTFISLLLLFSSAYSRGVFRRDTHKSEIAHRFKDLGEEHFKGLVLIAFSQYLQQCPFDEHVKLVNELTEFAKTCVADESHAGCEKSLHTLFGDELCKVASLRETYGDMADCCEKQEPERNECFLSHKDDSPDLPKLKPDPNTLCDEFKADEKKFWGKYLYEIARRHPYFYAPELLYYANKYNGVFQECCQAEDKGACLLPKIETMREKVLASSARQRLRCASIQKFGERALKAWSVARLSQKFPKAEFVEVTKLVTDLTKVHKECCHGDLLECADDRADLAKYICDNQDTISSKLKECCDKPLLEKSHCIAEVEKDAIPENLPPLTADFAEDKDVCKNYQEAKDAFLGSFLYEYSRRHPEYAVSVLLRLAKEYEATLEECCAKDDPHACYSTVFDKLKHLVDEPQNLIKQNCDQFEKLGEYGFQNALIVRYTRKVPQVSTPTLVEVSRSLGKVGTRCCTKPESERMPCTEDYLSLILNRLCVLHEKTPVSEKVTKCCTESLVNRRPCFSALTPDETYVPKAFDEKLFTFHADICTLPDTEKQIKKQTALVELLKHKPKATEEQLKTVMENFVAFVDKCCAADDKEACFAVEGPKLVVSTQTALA
# [3] = target: T3, NUDT7 (Homo sapiens, UniProt P0C024); design: Intact protein LC/MS covalent labelling, fragments in pools of five, 200 uM each, 4 °C; conditions: 24 h, 4 °C, pool of five; 200 µM; covalent
# T3 construct: residues 14-235, E. coli, pNIC28-Bsa4, N-terminal His6 tag removed by TEV, construct 26672 Da
# T3 sequence (P0C024 14-235): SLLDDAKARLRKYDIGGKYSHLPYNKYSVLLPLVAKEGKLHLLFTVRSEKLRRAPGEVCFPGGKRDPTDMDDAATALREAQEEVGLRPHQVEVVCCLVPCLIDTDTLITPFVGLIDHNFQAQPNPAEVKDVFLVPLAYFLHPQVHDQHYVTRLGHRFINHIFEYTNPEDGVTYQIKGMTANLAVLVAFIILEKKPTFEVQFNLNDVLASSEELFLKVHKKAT
# [4] = target: T4, PCAF (Homo sapiens, UniProt Q92831); design: Intact protein LC/MS covalent labelling, fragments in pools of five, 200 uM each, 4 °C; conditions: 24 h, 4 °C, pool of five; 200 µM; covalent
# T4 construct: gene KAT2B
# T4 sequence (Q92831 whole entry, the tested form may be a part): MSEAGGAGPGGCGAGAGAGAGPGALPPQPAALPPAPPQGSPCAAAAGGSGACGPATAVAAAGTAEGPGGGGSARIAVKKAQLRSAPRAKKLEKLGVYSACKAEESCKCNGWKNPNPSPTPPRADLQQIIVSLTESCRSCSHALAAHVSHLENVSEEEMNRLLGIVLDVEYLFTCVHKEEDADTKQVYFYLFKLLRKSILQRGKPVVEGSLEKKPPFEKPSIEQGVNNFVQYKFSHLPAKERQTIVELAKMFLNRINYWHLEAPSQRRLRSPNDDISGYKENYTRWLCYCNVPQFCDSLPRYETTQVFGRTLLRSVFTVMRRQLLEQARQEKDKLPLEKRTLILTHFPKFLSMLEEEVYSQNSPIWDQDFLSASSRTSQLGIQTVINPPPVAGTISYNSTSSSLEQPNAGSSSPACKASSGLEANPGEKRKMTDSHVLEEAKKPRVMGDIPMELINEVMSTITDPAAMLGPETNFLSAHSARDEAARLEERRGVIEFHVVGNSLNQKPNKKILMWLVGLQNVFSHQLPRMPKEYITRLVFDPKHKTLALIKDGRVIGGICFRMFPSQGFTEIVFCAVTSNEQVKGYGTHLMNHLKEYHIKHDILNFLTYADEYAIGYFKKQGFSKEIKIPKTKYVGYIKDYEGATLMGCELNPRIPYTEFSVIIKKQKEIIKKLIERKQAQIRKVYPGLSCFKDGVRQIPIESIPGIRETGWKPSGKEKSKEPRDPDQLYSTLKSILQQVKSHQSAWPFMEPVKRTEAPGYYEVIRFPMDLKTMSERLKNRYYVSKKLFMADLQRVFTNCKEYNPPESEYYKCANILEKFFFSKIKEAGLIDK
# [5] = in vitro; design: species or system CCD841, HEK293; conditions: human, hb2 cells, read-out: HB-2 Cells Viability (%)
# [6] = in vitro; design: species or system HB2, CCD841; conditions: human, hek293 cells
# [7] = in vitro; design: species or system HB2, HEK293; conditions: human, ccd841 cells
OTUB2 [1],BSA [2],NUDT7 [3],PCAF [4],Structure (SMILES),"viability at 48 h, 10 µM [5] [%]","viability at 48 h, 10 µM [6] [%]","viability at 48 h, 10 µM [7] [%]"
0.14,0,0.22,0,O=C(CCl)Nc1ccc(Cl)cc1Cl [PCM-0102914],52.5,38.3,82.7
0.49,0,0,0,O=C(CCl)Nc1ccc(N2CCCC2=O)cc1 [PCM-0102915],59.3,17.7,65.3
0.1,0,0,0,O=C(CCl)N1CCN(Cc2ccccc2)C1=O [PCM-0102919],102,90.9,96.2
0.2,0,0.17,0,O=C(CCl)Nc1ccc(Br)cc1F [PCM-0102926],50.9,32.5,59.9
0,0,0.04,0,CC(C)c1nnc(NC(=O)CCl)s1 [PCM-0102928],85.3,81.8,77.9
0,0,0,0,Cl.O=C(CCl)Nc1ccncc1 [PCM-0102930],86.4,90.5,90.7
0,0,0.29,0,O=C(CCl)NC1(c2ccccc2)CCC1 [PCM-0102935],81.5,53.8,89.7
0,0,0,0,Cc1nn(C)c(C)c1NC(=O)CCl [PCM-0102949],93.9,99.6,83.8
0.18,0,0,0,O=C(CCl)NNC(=O)c1ccc(Cl)cc1 [PCM-0102953],83,82.8,82.1
0.8,0,0,0,O=C(CCl)NNC(=O)c1ccccc1Cl [PCM-0102954],91.9,91.3,72.3
0,0,0,0,C=CC(=O)Nc1cccc(C#N)c1 [PCM-0102956],104,74.5,102
0.5,0,0,0,Cc1ccc(CNC(=O)CCl)cc1F [PCM-0102959],86.6,62.6,84
0,0,0,0,C=CC(=O)Nc1cccc(Cl)c1 [PCM-0102961],97.3,80.4,103
0.36,0,0,0,CC(=O)c1cccc(NC(=O)CCl)c1 [PCM-0102965],2.5,1.9,11

# Continued, molecule first:
Structure (SMILES),OTUB2 [1],BSA [2],NUDT7 [3],PCAF [4],"viability at 48 h, 10 µM [5] [%]","viability at 48 h, 10 µM [6] [%]","viability at 48 h, 10 µM [7] [%]"
CN(C(=O)CCl)C1(C#N)CCCCC1 [PCM-0102916],0,0,0,0,38,7.5,47.6
O=C(CCl)N1CCC(c2nc3ccccc3o2)CC1 [PCM-0102920],0,0,0,0,40.1,21.4,70
CN1CCN(C(=O)CCl)CC1 [PCM-0102921],0,0,0,0,102,90.1,109
CC(C)(C)OC(=O)N1CCCC(CNC(=O)CCl)C1 (stereo not shown) [PCM-0102923],0.2,0.13,0,0,99.5,92.2,91
C=CC(=O)N1Cc2ccccc2OC(C)(C)C1 [PCM-0102927],0,0,0,0,104,93.4,111
CC1CCCN(C(=O)C2CCN(C(=O)CCl)CC2)C1 (stereo not shown) [PCM-0102933],0,0,0,0,92.6,57.9,80.1
CCOC(=O)C1CCCCN1C(=O)CCl (stereo not shown) [PCM-0102937],0.13,0,0,0,90.3,71.9,89.4
O=C(CCl)N1CCOC2CCCCC21 (stereo not shown) [PCM-0102940],0,0,0,0,93.7,74,95.8
CC(C)N(C(=O)CCl)C1CCCCC1 [PCM-0102941],0,0.3,0.17,0,85.7,56.3,26
CN(CC12CC3CC(CC(C3)C1)C2)C(=O)CCl [PCM-0102942],0.1,0,0.26,0,7.8,2.4,6.7
CC1CCN(C(=O)CCl)CC1 [PCM-0102945],0,0,0,0,103,88.3,108
CC(C)N(C(=O)CCl)C1CCCC1 [PCM-0102948],0,0,0.13,0,88.4,84.3,102
C=CC(=O)N1CCC(C#N)(c2ccccn2)CC1 [PCM-0102960],0.06,0,0,0,102,104,110
C=CC(=O)NC(O)C(Cl)(Cl)Cl (stereo not shown) [PCM-0102963],0,0,0,0,102,94.7,89.7

# From publication PMC6556873, “Rapid Covalent-Probe Discovery by Electrophile-Fragment Screening” (Journal of the American Chemical Society, 2019)
